Data reported in patent publication US9012502B2, “Cancer heat therapy-enhancing agent” (SBI Pharmaceuticals Co., Ltd., priority 2010, dated 2015).

How the values were obtained:
HEK293 cells = assay: Assay for intracellular reactive oxygen species (DCF-DA, flow cytometry); type: cell-based, human; conditions: incubation temperature 42° C., 0.5-2.0 mM 5-ALA
Source text: To investigate what kind of effect 5-aminolevulinic acids according to the present invention could exert on a level of intracellular reactive oxygen species during thermotherapy, human embryonic kidney-derived HEK293 cells and a DCF-DA fluorescent reagent (2′,7′-dichlorodihydrofluorescein diacetate; H2DCFDA) were used to perform an assay for measuring a level of intracellular reactive oxygen species. Note that this assay uses characteristics as follows. Cell-permeable H2DCFDA remains a non-fluorescent substance until it is oxidized in the cytoplasm of a viable cell. Once it enters the viable cell, its diacetate group is cleaved by an intracellular esterase. Then, the resulting molecule is further oxidized by reactive oxygen species to emit fluorescence. The higher the measured fluorescence level, the higher the level of intracellular reactive oxygen species. This assay was performed using the following procedure.
First, HEK293 cells were cultured at 37° C. for 24 hours in 10% fetal bovine serum (FBS)-containing Dulbecco's Modified Eagle (DME) medium. The cells were split into 8 groups. Next, the medium was replaced by an FBS-free DME medium. Then, 5-aminolevulinic acid (5-ALA) was added to each group at a final concentration of 0.5 mM, 1.0 mM, or 2.0 mM, and cultured at 37° C. for 2 hours. After that, 10% FBS was added, and the resulting HEK293 cells were incubated at 37 or 42° C. for 24 hours. In addition, 5-ALA-free HEK293 cells were likewise incubated at 37 or 42° C. for 24 hours. All the above culture processes were conducted in the dark, so that an ultraviolet light, visible light, infrared light, or radiation, etc., was never used for irradiation.
Furthermore, to each group of the HEK293 cells was added a DCF-DA fluorescent reagent (manufactured by Sigma-Aldrich Corporation) at a final concentration of 20 μM. The resulting mixture was incubated for 30 minutes. Then, fluorescence (FL1: green fluorescence) derived from the DCF-DA was measured for each group by flow cytometry (FACSCalibur, manufactured by Becton, Dickinson and Company). […] More specifically, when 0.5 mM of 5-ALA was added at an incubation temperature of 42° C., the level of intracellular reactive oxygen species was increased by 1.23 times (300/244) compared with that of the 5-ALA-free cells. When 1.0 mM of 5-ALA was added, the level of intracellular reactive oxygen species was increased by 1.34 times (326/244). When 2.0 mM of 5-ALA was added, the level of intracellular reactive oxygen species was increased by 1.42 times (346/244).

[1] = system: colon cancer-derived cell line Caco-2; assay: Hyperthermia sensitivity test using trypan blue reagent; type: cell-based; conditions: for fraction of dead cells (%), increase compared with 5-ALA-free cells: 42° C.
Source text: (§1) A colon cancer-derived cell line Caco-2, a human hepatoma-derived cell line HepG2, a human gastric cancer-derived cell line KatoIII, and a human cervical cancer-derived cell line HeLa were used as cancer cell lines. A human embryonic kidney cell line HEK293 was used as cells transformed so as to overgrow like cancer cells. A human normal diploid fibroblast line WI-38, a murine fibroblast-like cell line NIH3T3, and a human embryonic lung-derived normal fibroblast MRCS were used as normal cells. Each of these cells was cultured at 37 or 42° C. for 24 hours in a DME medium containing 10% FBS and 5-ALA at a concentration of 0, 0.5, 1, or 2 mM, and treated with trypsin for cell harvest. Then, equal volumes of the harvested cell-containing solution and a trypan blue reagent were mixed, and the number of the cells was counted with a hemocytometer to calculate the fraction of dead cells (cells stained with trypan blue) (%; percent cell death).

[2] = system: human gastric cancer-derived cell line KatoIII; assay: as above; type: cell-based
Source text: as §1

[3] = system: human hepatoma-derived cell line HepG2; assay: as above; type: cell-based; conditions: for fraction of dead cells (%), increase compared with 5-ALA-free cells: 42° C.
Source text: as §1

[4] = system: human cervical cancer-derived cell line HeLa; assay: as above; type: cell-based
Source text: as §1

[5] = system: human normal diploid fibroblast line WI-38; assay: as above; type: cell-based; conditions: normal cells WI-38, 42° C.
Source text: as §1

[6] = system: human embryonic kidney cell line HEK293; assay: as above; type: cell-based; conditions: for fraction of dead cells (%), increase compared with 5-ALA-free cells: 42° C.
Source text: as §1

[7] = system: human embryonic lung-derived normal fibroblast MRCS; assay: as above; type: cell-based; conditions: 42° C.
Source text: as §1

[8] = system: murine fibroblast-like cell line NIH3T3; assay: as above; type: cell-based; conditions: normal cells NIH3T3, 42° C.
Source text: as §1

[9] = 37° C., each concentration of 5-ALA

## NCC(=O)CCC(=O)O [5-ALA, 5-aminolevulinic acid]
HEK293 cells
  level of intracellular reactive oxygen species (in words): markedly increased
[1]; Caco-2, 0.5 mM 5-ALA
  fraction of dead cells (%), increase compared with 5-ALA-free cells: about 1.2 times
[1]; Caco-2, 1.0 mM 5-ALA
  fraction of dead cells (%), increase compared with 5-ALA-free cells: about 1.7 times
[1]; Caco-2, 2.0 mM 5-ALA
  fraction of dead cells (%), increase compared with 5-ALA-free cells: about 1.6 times
[1]; Caco-2, 37° C., each concentration of 5-ALA
  fraction of dead cells (in words): did not increase
[1]; Caco-2, 42° C.
  fraction of dead cells (in words): markedly increased depending on the 5-ALA concentration
[2]; 0.5 mM 5-ALA, 42° C.
  fraction of dead cells (%), increase compared with 5-ALA-free cells: about 1.8 times
[2]; 1.0 mM 5-ALA, 42° C.
  fraction of dead cells (%), increase compared with 5-ALA-free cells: about 1.8 times
[2]; 2.0 mM 5-ALA, 42° C.
  fraction of dead cells (%), increase compared with 5-ALA-free cells: about 1.8 times
[2]; [9]
  fraction of dead cells (in words): did not increase
[2]; 42° C.
  fraction of dead cells (in words): markedly increased depending on the 5-ALA concentration
[3]; HepG2, 0.5 mM 5-ALA
  fraction of dead cells (%), increase compared with 5-ALA-free cells: about 1.1 times
[3]; HepG2, 1.0 mM 5-ALA
  fraction of dead cells (%), increase compared with 5-ALA-free cells: about 1.35 times
[3]; HepG2, 2.0 mM 5-ALA
  fraction of dead cells (%), increase compared with 5-ALA-free cells: about 1.5 times
[3]; HepG2, 37° C., each concentration of 5-ALA
  fraction of dead cells (in words): did not increase
[3]; HepG2, 42° C.
  fraction of dead cells (in words): markedly increased depending on the 5-ALA concentration
[4]; 0.5 mM 5-ALA, 42° C.
  fraction of dead cells (%), increase compared with 5-ALA-free cells: about 1.4 times
[4]; 1.0 mM 5-ALA, 42° C.
  fraction of dead cells (%), increase compared with 5-ALA-free cells: about 1.5 times
[4]; 2.0 mM 5-ALA, 42° C.
  fraction of dead cells (%), increase compared with 5-ALA-free cells: about 1.6 times
[4]; [9]
  fraction of dead cells (in words): did not increase
[4]; 42° C.
  fraction of dead cells (in words): markedly increased depending on the 5-ALA concentration
[5]
  increase in the fraction of dead cells depending on the 5-ALA concentration (in words): no increase
[6]; HEK293, 0.5 mM 5-ALA
  fraction of dead cells (%), increase compared with 5-ALA-free cells: about 1.6 times
[6]; HEK293, 1.0 mM 5-ALA
  fraction of dead cells (%), increase compared with 5-ALA-free cells: about 2.0 times
[6]; HEK293, 2.0 mM 5-ALA
  fraction of dead cells (%), increase compared with 5-ALA-free cells: about 3.5 times
[6]; HEK293, 37° C., each concentration of 5-ALA
  fraction of dead cells (in words): did not increase
[6]; HEK293, 42° C.
  fraction of dead cells (in words): markedly increased depending on the 5-ALA concentration
[7]
  increase in the fraction of dead cells depending on the 5-ALA concentration (in words): no increase
[8]
  increase in the fraction of dead cells depending on the 5-ALA concentration (in words): no increase
